Experiments:
[1] = test system: enzyme associated with Bacillus stearothermophilus spores; test: Rapid enzyme fluorescence readout of indicators after hydrogen peroxide plasma sterilization; format: biochemical; details: for FLUORESCENCE - PERCENT POSITIVE 1 HR / FLUORESCENCE - PERCENT POSITIVE 2 HR / FLUORESCENCE - PERCENT POSITIVE 3 HR / FLUORESCENCE - PERCENT POSITIVE 4 HR / FLUORESCENCE - PERCENT POSITIVE 5 HR: 1–22 min diffusion;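 as to FLUORESCENCE - PERCENT POSITIVE 5 HR: percent of growth-positive indicators that were also fluorescence-positive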
Procedure: (§1) Sterilization indicators for Examples 6–9 were prepared as described above with the exception that closure member 22 of the sterilization indicator was constructed of TYVEK™ high-density polyethylene fiber material, commercially available from E.I. du Pont de Nemours and Co., Wilmington, Del.
(§2) Sterilization indicators were made as described above with spores that had been coated with each of the chemicals and concentrations listed in Table 6. The indicators were placed in instrument trays and exposed to a hydrogen peroxide plasma sterilization procedure at 45–55° C. in a STERRAD™ 100SI GMP Sterilizer, obtained from Advanced Sterilization Products Co., Irvine, Calif. During the sterilization procedure a vacuum was drawn in the sterilization chamber for 5–6 minutes until the pressure was reduced to 300 mTorr. A 1.8 ml aliquot of an aqueous solution of 58–60% hydrogen peroxide was then injected into the sterilization chamber over a period of about 6 minutes, yielding an empty chamber concentration of […] hydrogen peroxide, and hydrogen peroxide vapor was allowed to diffuse throughout the chamber for 1–22 minutes at 6–10 Torr. A vacuum was then drawn, reducing the pressure to 500 mTorr and removing all detectable hydrogen peroxide vapor from the chamber.
(§3) After exposure to the sterilization procedure, the indicators were removed from the sterilizer and the inner containers containing the enzyme substrate and nutrient medium were crushed. The indicators were then incubated at 60° C. and examined for fluorescence every hour for 5 hours using a 3M™ ATTEST™ Model 190 Rapid Autoreader, commercially available from 3M Company, St. Paul, Minn. Additionally, spore growth, as indicated by a color change from purple to yellow, was determined visually after 168 hours of incubation.
(§4) The number of growth positive indicators detected after 168 hours of incubation is recorded in Table 6.
as §2, with “7.” for “6.”
as §2, with “8.” for “6.”, “chamber. […]” for “chamber.”

[2] = test system: Bacillus stearothermophilus spores; test: Spore outgrowth (color change) of indicators after hydrogen peroxide plasma sterilization; format: cell-based; details: 1–22 min diffusion
Procedure: as §1, §2, §3, §4
as §2, with “7.” for “6.”
as §2, with “8.” for “6.”, “chamber. […]” for “chamber.”

[3] = test system: enzyme associated with Bacillus stearothermophilus spores; test: Rapid enzyme fluorescence readout of dual rapid readout indicators after prevacuum steam sterilization; format: biochemical; details: Example 1, 4-pulse prevacuum steam 121° C., 7–13 min
In short: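 Bacillus stearothermophilus ATCC 7953 spores were coated with a sterilant-resistant chemical solution and pipetted onto paper strips at about 1×10^6 spores per strip. Each strip sat in a dual rapid readout indicator beside a crushable inner container of nutrient medium holding 4-methylumbelliferyl-alpha-D-glucoside at pH 7.6. Indicators went through a 4-pulse prevacuum steam cycle at 121° C, were activated, incubated at 60° C, and read for fluorescence on a 3M ATTEST Model 190 Rapid Autoreader.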

[4] = test system: Bacillus stearothermophilus spores; test: Spore outgrowth (color change) of indicators after prevacuum steam sterilization; format: cell-based; details: Example 1, 4-pulse prevacuum steam 121° C., 7–13 min
In short: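 Bacillus stearothermophilus ATCC 7953 spores were cleaned, mixed into a heated sterilant-resistant coating chemical solution and pipetted onto paper strips at about 1×10^6 spores per strip. The strips were dried and placed in indicators, then exposed to a 4-pulse prevacuum steam cycle at 121° C. After exposure the media ampoule was crushed, and growth was judged visually as a purple-to-yellow color change after 168 hours at 60° C.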

## polyoxyethylene (60) glycerol monostearate [POE(60) Glycerol Monostearate]
[1]; 2–3 hours after exposure
  accuracy of sterilization indicators compared to indicators made with untreated spores: improved
[1]; Example 7, 50 mg/ml coating
  FLUORESCENCE - PERCENT POSITIVE 1 HR: 100%
  FLUORESCENCE - PERCENT POSITIVE 2 HR: 100%
  FLUORESCENCE - PERCENT POSITIVE 3 HR: 100%
  FLUORESCENCE - PERCENT POSITIVE 4 HR: 100%
  FLUORESCENCE - PERCENT POSITIVE 5 HR: 100%
[1]; Example 7, 100 mg/ml coating
  FLUORESCENCE - PERCENT POSITIVE 1 HR: 57.1%
  FLUORESCENCE - PERCENT POSITIVE 2 HR: 57.1%
  FLUORESCENCE - PERCENT POSITIVE 3 HR: 71.4%
  FLUORESCENCE - PERCENT POSITIVE 4 HR: 71.4%
  FLUORESCENCE - PERCENT POSITIVE 5 HR: 71.4%
[2]; Example 7, 50 mg/ml coating
  NO. GROWTH POSITIVE 168 HR: 7
[2]; Example 7, 100 mg/ml coating
  NO. GROWTH POSITIVE 168 HR: 7

## Alkyl Polyglucoside
[1]; Example 8, 20 mg/ml coating
  FLUORESCENCE - PERCENT POSITIVE 1 HR: 0%
  FLUORESCENCE - PERCENT POSITIVE 2 HR: 0%
  FLUORESCENCE - PERCENT POSITIVE 3 HR: 0%
  FLUORESCENCE - PERCENT POSITIVE 4 HR: 0%
  FLUORESCENCE - PERCENT POSITIVE 5 HR: 0%
[1]; Example 8, 40 mg/ml coating
  FLUORESCENCE - PERCENT POSITIVE 1 HR: 0%
  FLUORESCENCE - PERCENT POSITIVE 2 HR: 0%
  FLUORESCENCE - PERCENT POSITIVE 3 HR: 0%
  FLUORESCENCE - PERCENT POSITIVE 4 HR: 0%
  FLUORESCENCE - PERCENT POSITIVE 5 HR: 0%
[2]; Example 8, 20 mg/ml coating
  NO. GROWTH POSITIVE 168 HR: 5
[2]; Example 8, 40 mg/ml coating
  NO. GROWTH POSITIVE 168 HR: 1

## Hexaglyceryl Monostearate
[3]; 5 mg/ml coating
  FLUORESCENCE - PERCENT POSITIVE 1 HR: 0%
  FLUORESCENCE - PERCENT POSITIVE 2 HR: 32.0%
  FLUORESCENCE - PERCENT POSITIVE 3 HR: 78.0%
  FLUORESCENCE - PERCENT POSITIVE 4 HR: 84.0%
  FLUORESCENCE - PERCENT POSITIVE 5 HR: 90.0%
  FLUORESCENCE - PERCENT POSITIVE 6 HR: 94.0%
[3]; 10 mg/ml coating
  FLUORESCENCE - PERCENT POSITIVE 1 HR: 0%
  FLUORESCENCE - PERCENT POSITIVE 2 HR: 31.8%
  FLUORESCENCE - PERCENT POSITIVE 3 HR: 63.6%
  FLUORESCENCE - PERCENT POSITIVE 4 HR: 79.5%
  FLUORESCENCE - PERCENT POSITIVE 5 HR: 84.1%
  FLUORESCENCE - PERCENT POSITIVE 6 HR: 86.4%
[3]; 20 mg/ml coating
  FLUORESCENCE - PERCENT POSITIVE 1 HR: 0%
  FLUORESCENCE - PERCENT POSITIVE 2 HR: 61.4%
  FLUORESCENCE - PERCENT POSITIVE 3 HR: 86.4%
  FLUORESCENCE - PERCENT POSITIVE 4 HR: 95.5%
  FLUORESCENCE - PERCENT POSITIVE 5 HR: 97.7%
  FLUORESCENCE - PERCENT POSITIVE 6 HR: 97.7%
[4]; 5 mg/ml coating
  NO. GROWTH POSITIVE 168 HR: 50
[4]; 10 mg/ml coating
  NO. GROWTH POSITIVE 168 HR: 44
[4]; 20 mg/ml coating
  NO. GROWTH POSITIVE 168 HR: 44
